Broadly, the EC50 is the concentration that produces a half-maximal response.

Data on one compound can be found in patent US8741875B2, “Compounds as receptor modulators with therapeutic utility” (Allergan, Inc., priority 2009, dated 2014).

The target of experiment [1] is T1, human S1P1 receptor (Homo sapiens, UniProt P21453).
T1 construct: expressed in transfected cells; membranes used
The experiment can be described thus: GTP γ35S binding assay for S1P1 activity. Format: biochemical. Particulars: membranes, 30 min at 25° C., read-out: S1P1 EC50 (Activity potency: S1P1 receptor from GTP γ35S). As for the experimental part: Compounds were tested for S1P1 activity using the GTP γ^35S binding assay. These compounds may be assessed for their ability to activate or block activation of the human S1P1 receptor in cells stably expressing the S1P1 receptor.
GTP γ^35S binding was measured in the medium containing (mM) HEPES 25, pH 7.4, MgCl2 10, NaCl 100, dithitothreitol 0.5, digitonin 0.003%, 0.2 nM GTP γ^35S, and 5 μg membrane protein in a volume of 150 μl. Test compounds were included in the concentration range from 0.08 to 5,000 nM unless indicated otherwise. Membranes were incubated with 100 μM 5′-adenylylimmidodiphosphate for 30 min, and subsequently with 10 μM GDP for 10 min on ice. Drug solutions and membrane were mixed, and then reactions were initiated by adding GTP γ^35S and continued for 30 min at 25° C. Reaction mixtures were filtered over Whatman GF/B filters under vacuum, and washed three times with 3 mL of ice-cold buffer (HEPES 25, pH7.4, MgCl2 10 and NaCl 100). Filters were dried and mixed with scintillant, and counted for ^35S activity using a β-counter. Agonist-induced GTP γ^35S binding was obtained by subtracting that in the absence of agonist. Binding data were analyzed using a non-linear regression method. In case of antagonist assay, the reaction mixture contained 10 nM S1P in the presence of test antagonist at concentrations ranging from 0.08 to 5000 nM.
For orientation: Binding of GTPγS marks nucleotide exchange on a G protein.

The test system of experiment [2] is blood lymphocytes. Description: Lymphopenia Assay in Mice (blood lymphocyte depletion). In kind it is in vivo, female C57BL6 mice. Particulars: FIG. 1. As for the experimental part:
A lymphopenia assay in mice; as previously described, was employed to measure the in vivo blood lymphocyte depletion after dosing with the test compound: [3-({4-[(5-phenylpentyl)oxy]-3-(2-thienyl)benzyl}amino)propyl]phosphonic acid Compound 6. This S1P1 modulator, [3-({4-[(5-phenylpentyl)oxy]-3-(2-thienyl)benzyl}amino)propyl]phosphonic acid Compound 6 is useful for S1P-related diseases and exemplified by the lymphopenia in vivo response.
Test drugs, were prepared in a solution containing 3% (w/v) 2-hydroxy propyl β-cyclodextrin (HPBCD) and 1% DMSO to a final concentration of 1 mg/ml, and subcutaneously injected to female C57BL6 mice (CHARLES RIVERS) weighing 20-25 g at the dose of 10 mg/Kg. Blood samples were obtained by puncturing the submandibular skin with a Goldenrod animal lancet at different time intervals such as: 24, 48, 72 (and 96 h) post drug application. Blood was collected into microvettes (SARSTEDT) containing EDTA tripotassium salt. Lymphocytes in blood samples were counted using a HEMAVET Multispecies Hematology System, HEMAVET HV950FS (Drew Scientific Inc.). (Hale, J. et al Bioorg. & Med. Chem. Lett. 14 (2004) 3351

T1 sequence (P21453 whole entry): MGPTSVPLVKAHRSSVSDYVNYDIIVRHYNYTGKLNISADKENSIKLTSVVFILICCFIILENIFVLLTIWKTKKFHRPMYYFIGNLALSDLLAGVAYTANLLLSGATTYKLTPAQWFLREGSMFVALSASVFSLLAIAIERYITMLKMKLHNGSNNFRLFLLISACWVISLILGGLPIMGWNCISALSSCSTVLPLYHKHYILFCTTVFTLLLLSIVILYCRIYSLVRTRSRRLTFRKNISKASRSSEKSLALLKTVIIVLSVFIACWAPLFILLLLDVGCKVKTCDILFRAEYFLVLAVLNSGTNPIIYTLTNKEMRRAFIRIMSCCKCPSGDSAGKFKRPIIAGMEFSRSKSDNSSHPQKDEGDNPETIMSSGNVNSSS

Take `O=P(O)(O)CCCNCc1ccc(OCCCCCc2ccccc2)c(-c2cccs2)c1` [Compound 6, [3-({4-[(5-phenylpentyl)oxy]-3-(2-thienyl)benzyl}amino)propyl]phosphonic acid]: the concentration giving a half-maximal response (EC50) in experiment [1] came to 1.3 nM. In experiment [2] (10 mg/kg in mice (24, 48, 72 Hours)), the Lymphopenia entry is reported as “induced”. Besides, the “lymphocyte count (number of lymphocytes)” value in experiment [2] (mice, 10 mg/Kg subcutaneously, after 24 hours) is recorded as < 1 10^3/μL blood.
